Consider `CCCCCCCCCCCCc1cc(C=O)on1`, for which the melting point (commonly the temperature, or range, at which the solid turns liquid) is 53 to 54 °C.

Regarding `Cc1cn(C)c2c1N(C(=O)CCl)c1ccccc1NC2=O`, the melting point is 267 to 269 °C.

As for `COCc1nc(C(C)(C)O)c(C(=O)OCc2oc(=O)oc2C)n1Cc1ccc(-c2ccccc2-c2nnn[nH]2)cc1`, the melting point lay within 138 to 140 °C.

In the case of `O=c1cc2c(nn1Cc1ccc(Cl)cc1)-c1ccccc1S(=O)(=O)CC2`, the melting point lay in the range of 238 to 239 °C.

Molecule `CC(=NO)C1=CCC2C3CCC4CC=CCC4(C)C3C(=O)CC12C` (stereo not drawn) gave a melting point of 168 to 182 °C.

The molecule `Oc1cc(OCc2ccccn2)ccc1/C=C/c1cc(/C=C/c2ccc3cc[nH]c3c2)n[nH]1` showed a melting point of 202 to 204 °C.

Consider `CC(CO)(CO)NS(=O)(=O)c1cc([N+](=O)[O-])c(Cl)s1`, for which the melting point is 133 °C.

Consider `FC(F)(F)c1cccc(-c2[nH]c(C3CCNCC3)cc2-c2ccncc2)c1`, for which the melting point was in the range of 106 to 112 °C.

Take `COc1cccc2c1CN(Nc1ccncc1)C2`: the melting point was 144 to 146 °C.

For `CNC(=O)N(c1ccncc1)n1cccc1`, the melting point was in the range of 156 to 160 °C.

The molecule `Cc1sc(C(=O)OCc2ccccc2)cc1NC(=O)Cc1ccccc1` showed a melting point of 173 to 174 °C.

Turning to `COC(=O)CC[C@H](NC(=O)CCC#Cc1cnc2nc(NC(=O)C(C)(C)C)nc(O)c2c1)C(=O)OC`, the melting point lay within 162 to 163 °C.

Turning to `Cc1cc(NC(=O)COc2ccccc2)cc(C)c1S(=O)(=O)C[N+](=O)[O-]`, the melting point is 166 to 167 °C.

For `Cc1oc(-c2ccccc2)nc1COc1ccc(CCCc2nnn[nH]2)cn1`, the melting point was 137 to 138 °C.

With `CCOC(=O)CNC(=O)[C@@H]1CS[C@H](c2ccccc2O)N1C(=O)CCSC(C)=O`, the melting point is 130 to 131 °C.

The molecule `COc1ccc(C(=O)CC2CCCC2)c(Cl)c1Cl` yielded a melting point of 60 to 61.5 °C.

In turn, `Cn1ccc2c(c(=NO)c1=O)C=CCC2` came in with a melting point of 225 to 226 °C.

As for `N#Cc1ccc(NC2CCN(Cc3cc(F)cc(F)c3)CC2)nn1`, the melting point stood at 188 °C.

The molecule `CCCCc1c(C)cc(C)cc1O` showed a melting point of 65 to 67 °C.

`CCCCCCCCCCCCCCCCCCOc1cc(SC)cc(N(CC(=O)O)CC(=O)O)c1`: the melting point lay within 129 to 130 °C.

For `Cc1ncc2n1-c1ccccc1N(c1ccccc1)C(=O)C2`, the melting point lay within 217 to 220 °C.

The molecule `COCc1c(C(=O)O)ncc2[nH]c3c(c12)CCCC3` registered a melting point of more than 260 °C.

The molecule `CN(C(=O)N1CCN2C(=O)OC(c3ccccc3)(c3ccccc3)C2C1)c1ccccc1` (stereo not drawn) showed a melting point of 146 to 147 °C.

`COc1ccc(C=CC(=O)c2cc(Oc3ccccc3)c(NS(C)(=O)=O)cc2O)cc1OC` came in with a melting point of 210 to 212 °C.

For the molecule `CN1CCC(c2cccc3ccc(-c4cncnc4)cc23)CC1`, the melting point lay in the range of 122 to 123 °C.

Molecule `CS(=O)(=O)Nc1ccc(C#N)cc1C(O)c1ccc(F)cc1F` (stereo not drawn) showed a melting point of 133 to 135 °C.

`COC(=O)c1ccc2c(c1)NC(=O)C(C)O2` (stereo not drawn) showed a melting point of 156 to 159 °C.

Take `Cc1cc(C)c(NC(=O)NC2CC2c2ccc(-c3ncn(-c4ccc(OC(F)(F)F)cc4)n3)cc2)c(C)c1` (stereo not drawn): the melting point was in the range of 254 to 256 °C.

`CCOC(=O)c1[nH]c(C)c(C(C)C)c1C`: the melting point fell in the range of 105 to 108 °C.

`C#CCCCOC(=O)NC(=O)C(c1ccccc1)c1ccccc1`: the melting point is 109 °C.

`CCCCCCCCNC(=O)C1CC1c1ccc(N2CC(C(=O)O)CC2=O)cc1` (stereo not drawn) registered a melting point of 214 °C.

Molecule `COc1ccccc1NC(=O)C(C)(C)CCCOc1cc(C)ccc1C` came in with a melting point of 47 to 48 °C.

Consider `COc1nc(C)cnc1NS(=O)(=O)c1cccnc1-c1ccc(CC(C)CO)cc1` (stereo not drawn), for which the melting point was 118 to 119 °C.

In turn, `Cn1ccc(=S)c2ccccc21` showed a melting point of 208 to 210 °C.

In turn, `O=S(CCO)CCC(c1cc(F)ccc1F)S(=O)(=O)c1ccc(Cl)cc1` (stereo not drawn) came in with a melting point of 124 to 132 °C.

`COc1cc(OC)nc(C2(O)OC(=O)c3c2ccnc3C)n1` (stereo not drawn): the melting point was in the range of 203 to 204 °C.

With `O=C1CC2CCc3ccc(Cl)cc3C2=NN1c1ccccc1` (stereo not drawn), the melting point lay within 120 to 122 °C.

In turn, `CC(=O)O[C@H]1[C@H](NC(=N)Nc2ccccc2)c2cc(C#N)ccc2OC1(C)C` (relative stereo) came in with a melting point of 239 to 240 °C.

The molecule `O=Cc1c2ccccc2c(C=O)c2ccccc12` registered a melting point of 224 to 245 °C.

`CC(=O)NC(NC(=O)c1ccccc1C(=O)O)C(=O)NCc1ccccc1` (stereo not drawn) displayed a melting point of 186 to 188 °C.

`CCNC1=CC(=O)CC1` had a melting point of 136 °C.

With `CCCC1=C(C#N)C(c2ccccc2Br)c2c[nH]nc2N1` (stereo not drawn), the melting point is 237 °C.

`Cn1c(COc2nn3c(-c4ccccc4F)nncc3c2-c2ccccc2F)nc2ccccc21` had a melting point of 218 to 220 °C.

On to `CCc1cc(C(=O)NCc2ccc(-c3ccc(OC(F)F)cc3)cc2)n(C)n1`, for which the melting point fell in the range of 107 to 108 °C.

`Cc1cc(-c2nc(-c3ccncc3)nn2C)cc(C)n1` registered a melting point of 176 to 178 °C.

The molecule `COc1ccc(-c2c(CO)c(CO)c3n2-c2ccc(OC)cc2C3)cc1` displayed a melting point of 186 to 187 °C.

In turn, `CC(=O)Nc1nc(C=O)cs1` displayed a melting point of 196 to 199 °C.

Molecule `O=C1C=C(Oc2ccc(Oc3ccccc3)cc2)C(O)O1` (stereo not drawn) displayed a melting point of 107 to 108 °C.

For the molecule `Cc1cccc2nc(NC(=O)c3ccc(C(C)(C)CCC(=O)O)cc3)cn12`, the melting point was 260 °C.

With `C#CCN1C(=O)COc2cc(F)ccc21`, the melting point lay in the range of 98 to 100 °C.

Regarding `Cc1nnc(-c2ccc3ccn(-c4ccc(S(C)=O)cc4)c3c2)o1` (stereo not drawn), the melting point is 215 to 216 °C.

`CC(C)(O)CC(=O)N[C@H]1CC[C@H](CCN2CCN(c3nccc4c3OCC4)CC2)CC1`: the melting point was 139 °C.

For `COc1ccc(-c2nc(C)c(C)s2)cc1`, the melting point lay within 166 to 170 °C.

Consider `N#Cc1c(Cl)cccc1CBr`, for which the melting point was determined as 83 °C.

`CCC#CCCOc1cc(C=O)ccc1OC` gave a melting point of 86.5 to 87.5 °C.

As to `COc1ccc(NC(=O)NCc2cccc3c2C(=O)N(C2CCC(=O)NC2=O)C3=O)cc1` (stereo not drawn), the melting point fell in the range of 205 to 207 °C.

In turn, `COc1ccc(Cn2c(C(C)C)c(C(=O)c3cccnc3)c3ccccc32)cc1` showed a melting point of 190 °C.

As for `Nc1ccc(C2=NCCO2)cc1`, the melting point is 163 to 165 °C.

In the case of `CC(Oc1ccc(Cl)nc1Cl)C(=O)O` (stereo not drawn), the melting point lay in the range of 128 to 131 °C.

Take `CCC(Oc1c(C)c(F)cc(F)c1F)C1=NCCN1` (stereo not drawn): the melting point lay in the range of 99 to 101 °C.

`COC(=O)c1ccc(Cl)cc1NC(=O)Cc1cccnc1` had a melting point of 85 to 87 °C.

`O=C1C(=Cc2ccccc2)CS(=O)(=O)CC1=Cc1ccccc1` showed a melting point of 201 to 203 °C.

Molecule `COc1cc(Nc2c(C#N)cnc3cc(-c4ccc(CN5CCOCC5)cn4)ccc23)c(Cl)cc1Cl` yielded a melting point of 220 to 222 °C.

With `CCOC(=O)c1sc(NC(=O)c2ccc(C)cc2)nc1C(F)(F)C(F)(F)F`, the melting point was 202 to 203 °C.

In the case of `Cn1c(CC(=O)O)ccc1C(=O)c1ccc(Cl)cc1Cl`, the melting point lay within 165 to 166 °C.

In turn, `COc1ccc(C(=O)Nc2ccc3ccc(C=O)nc3n2)cc1` registered a melting point of 194 °C.

On to `CC(/C=C/c1sccc1-c1ccc2c(c1)C(C)(C)CCC2(C)C)=C\C(=O)O`, for which the melting point was 188 to 189 °C.

With `CCc1cccc2c(O)cnnc12`, the melting point was 160 to 161 °C.

For `CCOC(=O)C1=C(C)NC2=C(C(=O)OC2)C1c1ccccc1OC` (stereo not drawn), the melting point was 219 to 220 °C.

On to `COc1ccc(CN2C(=O)NC(=O)C2O)cc1OC` (stereo not drawn), for which the melting point lay in the range of 143 to 144 °C.

In the case of `CNC(=O)c1cc(Cl)cc(C)c1NC(=O)c1cc(Br)nn1-c1ncccc1Cl`, the melting point fell in the range of 162 to 164 °C.

Take `CSc1ncc(C#N)c(NC2CCCC2)n1`: the melting point lay in the range of 119 to 122 °C.

Take `COc1ccc2sc3cc(-c4nnn[nH]4)ccc3c(=O)c2c1`: the melting point is more than 350 °C.

Turning to `CC(=O)NC(=Cc1ccccc1)C1=NC(=Cc2ccc(C)s2)C(=O)O1`, the melting point lay in the range of 193 to 194 °C.

Take `CN(C)S(=O)(=O)CC(CS(=O)(=O)c1ccc(Oc2ccc(OC(F)(F)F)cc2)cc1)N(O)C=O` (stereo not drawn): the melting point is 124 to 126 °C.

For the molecule `CNC(=O)NCCn1c(-c2ccc(CN3CCOCC3)cc2OC)csc1=Nc1ccc(F)c(C)c1`, the melting point fell in the range of 158 to 162 °C.

`CC(C)(C)c1cc(NC(=O)NCCCl)cc(C(C)(C)C)c1O` had a melting point of 169 to 171 °C.

`N=C(N)Nc1nc(-c2cccc([N+](=O)[O-])c2)no1`: the melting point fell in the range of 290 to 291 °C.

For `CCC(O)(CC)c1cccc2[nH]c(=O)n(C)c12`, the melting point is 199 to 201 °C.

`Cc1c(CO)ncn1C(c1ccccc1)(c1ccccc1)c1ccccc1` came in with a melting point of 255 to 260 °C.

Regarding `O=Cc1ccc(-c2ccc(O)cc2)c2ccoc12`, the melting point was in the range of 184 to 185 °C.

As for `CC(C)(Sc1nnnn1-c1ccccc1)c1ccc([N+](=O)[O-])cc1`, the melting point came out at 122 °C.

As for `CCC(=O)c1cccc(Oc2nc(OC)cc(OC)n2)c1C(=O)OC`, the melting point was in the range of 120 to 122 °C.

`CC(C)n1cnc2c(N[C@H](CO)c3ccccc3)nc(NC[C@@H](C)O)nc21`: the melting point fell in the range of 109 to 112 °C.

As to `O=C(NC/C=C\COc1cc(CN2CCCCC2)ccn1)NC1CCCC1`, the melting point lay in the range of 121 to 124 °C.

With `Fc1cc(Br)c2ncccc2c1`, the melting point lay within 75 to 78 °C.

Regarding `COC(=O)C1(N(OC2CCCO2)C(=O)Cc2c(C)cc(C)cc2C)CCN(OC)CC1` (stereo not drawn), the melting point was 107 to 109 °C.

Take `O=S(=O)(Nc1cnc(-n2ccnc2)nc1NCc1ccc2c(c1)OCO2)c1ccc(Cl)cc1`: the melting point was 206 to 207 °C.

Take `CC(=O)NCCn1ccc2ncnc(Nc3ccc(Oc4cccc5sncc45)c(Br)c3)c21`: the melting point lay in the range of 132 to 135 °C.

`CN(C)c1cc2nc(C(=O)O)c(=O)[nH]c2cc1[N+](=O)[O-]` returned a melting point of 194 to 196 °C.

Consider `CCOCOCCCOn1cnc2c(=O)[nH]c(N)nc21`, for which the melting point lay within 242 to 245 °C.

The molecule `CC(=O)c1ccc2c(c1)C1(C)C3(C)CCC(C3)C1(C)O2` (stereo not drawn) showed a melting point of 140 to 142 °C.

Molecule `C#CC(C)N(C)C(=O)Nc1ccc(Oc2cccc(Cl)n2)cc1` (stereo not drawn) came in with a melting point of 140 to 142 °C.

The values above are taken from a melting point compilation (Tetko et al.; mined from patent text by program, amines drawn as free bases though some values may be those of a salt).
